Data published in ChEMBL document CHEMBL5441142, “Probing the Merck KGaA Open Global health library for novel starting points for anti-schistosomal drug discovery” (2024).
Calls of active or inactive are those of the source.

Key:
Schistosoma mansoni [1] = experiment: In vitro activity screen on S. mansoni schistosomula at 10 uM. Compound-induced effects were assessed by quantifying larva motility and phenotype using Roboworm.; format: functional, organism-based; design: test concentration 10 uM, temperature 37 degree C, time incubation 72 h; details: Puerto Rican
Schistosoma mansoni [2] = experiment: Ex vivo activity screen on S. mansoni adult worms at 20 uM. Parasite motility after compound treatment was assessed at 72 h using the WHO-TDR scoring metric.; format: functional, organism-based; design: test concentration 20 uM, temperature 37 degree C; details: Puerto Rican

O=C(C1CCCCC1)N1CC(=O)N2CCc3ccccc3[C@@H]2C1
In vitro activity (Schistosoma mansoni [1]): Active | Ex-vivo screening (Schistosoma mansoni [2]): inactive

CNS(=O)(=O)c1ccccc1Nc1nc(Nc2ccc(N3CCOCC3)cc2OC)ncc1Br
In vitro activity (Schistosoma mansoni [1]): Active | Ex-vivo screening (Schistosoma mansoni [2]): inactive

COc1cc(OC)c(CCNC(=O)c2cn3cc(-c4cc(OCCO)ccc4OC)nc3s2)c(OC)c1
In vitro activity (Schistosoma mansoni [1]): Active | Ex-vivo screening (Schistosoma mansoni [2]): inactive

COc1ccc(OC)c(CCNC(=O)c2ccc3nc(-c4cc(OCCCO)ccc4OC)cn3c2)c1
In vitro activity (Schistosoma mansoni [1]): Active | Ex-vivo screening (Schistosoma mansoni [2]): inactive

CNS(=O)(=O)c1ccccc1Nc1nc(Nc2cc(OC)c(OC)cc2C)ncc1Br
In vitro activity (Schistosoma mansoni [1]): Active | Ex-vivo screening (Schistosoma mansoni [2]): inactive

COc1ccc(OCCCO)cc1-c1cn2cc(-c3nnc(NCCCCc4ccccc4)o3)ccc2n1
In vitro activity (Schistosoma mansoni [1]): Active | Ex-vivo screening (Schistosoma mansoni [2]): inactive

COc1cc(OC)c(CCNC(=O)c2cn3cc(-c4cc(OC)ccc4OC)nc3s2)c(OC)c1
In vitro activity (Schistosoma mansoni [1]): Active | Ex-vivo screening (Schistosoma mansoni [2]): inactive

COc1cc(Nc2cn(Cc3ccc(Oc4ccccc4)cc3)nn2)ccc1-n1cnc(C)c1
In vitro activity (Schistosoma mansoni [1]): Active | Ex-vivo screening (Schistosoma mansoni [2]): inactive

COc1ccc(OCCCO)cc1-c1cn2cc(C(=O)NCCc3c(OC)cccc3OC)sc2n1
In vitro activity (Schistosoma mansoni [1]): Active | Ex-vivo screening (Schistosoma mansoni [2]): inactive

COc1ccc(CNc2nc3c(ccc4[nH]c(=O)c(C#N)cc43)s2)cc1
EC50 (Schistosoma mansoni [1]): 4.35 µM (active) | Ex-vivo screening (Schistosoma mansoni [2]): Active

COc1cc(OC)c(CCNC(=O)c2cn3cc(-c4cc(OCC#N)ccc4OC)nc3s2)c(OC)c1
In vitro activity (Schistosoma mansoni [1]): Active | Ex-vivo screening (Schistosoma mansoni [2]): inactive

COc1cccc(CNc2nnc(-c3c[nH]c4ncccc34)o2)c1
In vitro activity (Schistosoma mansoni [1]): Active | Ex-vivo screening (Schistosoma mansoni [2]): inactive

COCCCOc1ccc(OC)c(-c2cn3cc(C(=O)NCCc4c(OC)cc(OC)cc4OC)ccc3n2)c1
In vitro activity (Schistosoma mansoni [1]): Active | Ex-vivo screening (Schistosoma mansoni [2]): inactive

CCOc1cc(CCC(=O)NC[C@H]2S[C@@H](c3ccc(C#Cc4ccccc4)cc3)N(c3cccc(C(N)=O)c3)C2=O)ccc1OC
In vitro activity (Schistosoma mansoni [1]): inactive

Cc1cn(-c2ccc(Nc3ncn(Cc4ccc(Cl)cc4)n3)cc2C#N)cn1
In vitro activity (Schistosoma mansoni [1]): Active | Ex-vivo screening (Schistosoma mansoni [2]): inactive

COCc1cc(-c2nc(-c3cc(F)cc(CN(C)CC(=O)O)c3)no2)ccc1-c1cccc(F)c1C
In vitro activity (Schistosoma mansoni [1]): inactive

CCCN1CCC2(CC1)OC(=O)C(C)=C2C(=O)N1CCc2ncc(C(F)(F)F)cc2C1
In vitro activity (Schistosoma mansoni [1]): inactive

COc1cc([S+](C)[O-])ccc1-c1nc2cnccc2[nH]1 (stereo not drawn)
In vitro activity (Schistosoma mansoni [1]): inactive

O=C(O)Cc1ccc(-c2nc(NCc3ccc4c(c3)OCO4)c3c(n2)sc2ccccc23)cc1
In vitro activity (Schistosoma mansoni [1]): inactive

CCNC1=N[C@@H]2[C@@H](O)[C@H](O)[C@@H](Cn3cc(COc4ccc(C)cc4)nn3)O[C@@H]2S1
In vitro activity (Schistosoma mansoni [1]): inactive

Cc1sc2nc(N3CCC(C(=O)O)CC3)nc(NCc3ccc4c(c3)OCO4)c2c1Cl
In vitro activity (Schistosoma mansoni [1]): inactive

CC/N=C(\c1ccc(OC)c(OC)c1)N1CCCc2cc(C3=NNC(=O)SC3C)ccc21 (stereo not drawn)
In vitro activity (Schistosoma mansoni [1]): inactive

CCN1CCC2(CC1)OC(=O)C(C)=C2C(=O)N1CCc2ccc(C(F)(F)F)cc2C1
In vitro activity (Schistosoma mansoni [1]): inactive

O=C(Nc1ccc(CNc2ncnc3ccccc23)cc1)c1ccc(Cl)c(F)c1
In vitro activity (Schistosoma mansoni [1]): inactive

CNC(=O)c1cc(Oc2ccc(NC(=O)Nc3cc(C(F)(F)F)ccc3-n3cncn3)cc2)ccn1
In vitro activity (Schistosoma mansoni [1]): inactive

CC(c1ccc2c(c1)CCC2)N1CCN(c2ccccc2)CC1 (stereo not drawn)
In vitro activity (Schistosoma mansoni [1]): inactive

Cn1nc(O[C@@H]2c3cc(C#N)ccc3OC(C)(C)[C@H]2O)ccc1=O
In vitro activity (Schistosoma mansoni [1]): inactive

CCN(CCC(=O)O)Cc1cccc(-c2noc(-c3ccc(-c4ccccc4C)c(COC)c3)n2)c1
In vitro activity (Schistosoma mansoni [1]): inactive

COc1ccc(CCNC(=O)c2cn3cc(-c4cc(OCCCO)ccc4OC)nc3s2)c(OCCCO)c1
In vitro activity (Schistosoma mansoni [1]): inactive

COc1cc(OC)cc(-c2cn3cc(C(=O)NCCc4c(OC)cc(OC)cc4OC)sc3n2)c1
In vitro activity (Schistosoma mansoni [1]): inactive

O=C(O)CCC(=O)OCC1(c2ccc(Cl)cc2)OCC(c2ccccc2)(c2ccccc2)CO1
In vitro activity (Schistosoma mansoni [1]): inactive

O=C(O)c1ccc(-c2nc(NCc3ccc4c(c3)OCO4)c3c(n2)sc2ccccc23)cc1
In vitro activity (Schistosoma mansoni [1]): inactive

COc1ccc(OCC(=O)O)cc1-c1cn2cc(C(=O)NCCc3c(OC)cc(Cl)cc3OC)sc2n1
In vitro activity (Schistosoma mansoni [1]): inactive

Cc1cc2c(cc1C(=O)N=C(N)N)S(=O)(=O)CCC2C (stereo not drawn)
In vitro activity (Schistosoma mansoni [1]): inactive

COc1ccc(C(=O)N2CCC(C)(C)c3cc(C4=NNC(=O)SC4C)ccc32)cc1OC (stereo not drawn)
In vitro activity (Schistosoma mansoni [1]): inactive

COc1cc(C(=O)Nc2cn(Cc3ccc(Cl)cc3)nn2)ccc1-n1cnc(C)c1
In vitro activity (Schistosoma mansoni [1]): inactive

COc1ccccc1CCN1CCC2(CC1)OC(=O)C(C)=C2C(=O)N1CCc2ccc(C(F)(F)F)cc2C1
In vitro activity (Schistosoma mansoni [1]): inactive

CCOc1cc(CCNC(=O)C[C@H]2S[C@@H](c3ccc(C#Cc4ccccc4)cc3)N(c3cccc(C(N)=O)c3)C2=O)ccc1OC
In vitro activity (Schistosoma mansoni [1]): Active | Ex-vivo screening (Schistosoma mansoni [2]): inactive

Cc1ccc(-c2ccccc2)cc1C(=O)N=C(N)N
In vitro activity (Schistosoma mansoni [1]): inactive

CC1=C(C(=O)N2CCc3ccc(C(F)(F)F)cc3C2)C2(CCN(C)CC2)OC1=O
In vitro activity (Schistosoma mansoni [1]): inactive

Cc1cc(-c2ccc[nH]2)c(S(C)(=O)=O)cc1C(=O)N=C(N)N
In vitro activity (Schistosoma mansoni [1]): inactive

CCNC1=N[C@@H]2[C@@H](O)[C@H](O)[C@@H](Cn3cc(COc4cccc(Br)c4)nn3)O[C@@H]2S1
In vitro activity (Schistosoma mansoni [1]): inactive

CCC(C)Oc1ccc(-c2nc(-c3ccc([C@@H](C)NCC(=O)O)cc3)no2)cc1COC (stereo partly drawn)
In vitro activity (Schistosoma mansoni [1]): inactive

CCOc1cc(C2=NN(C(=O)c3ccc(NC(=O)c4cccnc4)cc3)CCC2)ccc1OC
In vitro activity (Schistosoma mansoni [1]): inactive

CN(C)C(=O)/C=C/C(=O)c1ccc(SCc2ccc(Cl)cc2Cl)cc1
In vitro activity (Schistosoma mansoni [1]): Active | Ex-vivo screening (Schistosoma mansoni [2]): inactive

COc1ccc(N2C[C@H](CN3CCC(O)(c4ccc5c(c4)OCO5)CC3)OC2=O)cc1
In vitro activity (Schistosoma mansoni [1]): inactive

CCCc1nn(C)c2c(=O)[nH]c(-c3cc(C(=O)N=C(N)N)ccc3OCC)nc12
In vitro activity (Schistosoma mansoni [1]): inactive

Cc1cc2c(cc1C(=O)N=C(N)N)S(=O)(=O)C(C)(C)CO2
In vitro activity (Schistosoma mansoni [1]): inactive

CC1(C)Oc2ccc(C#N)cc2[C@H](n2ccccc2=O)[C@H]1O
In vitro activity (Schistosoma mansoni [1]): inactive

COc1ccc(CNc2nc(CCCC(=O)O)nc3oc4c(c23)CCCC4)cc1Cl
In vitro activity (Schistosoma mansoni [1]): inactive

COc1ccc(CNc2nc([C@H]3CC[C@H](C(=O)O)CC3)nc3sc4ccccc4c23)cc1Cl
In vitro activity (Schistosoma mansoni [1]): inactive

CCCCc1nc2ccn(Cc3ccccc3C(=O)O)c(=O)c2n1Cc1ccc(-c2ccccc2-c2nn[nH]n2)cc1
In vitro activity (Schistosoma mansoni [1]): inactive

CCOc1cc(-c2nc(-c3ccc(CN(C)CC(=O)O)cc3)no2)ccc1-c1ccccc1C
In vitro activity (Schistosoma mansoni [1]): inactive

Cc1c(O)nc(N)nc1-c1cc2ccccc2o1
In vitro activity (Schistosoma mansoni [1]): inactive

CC1=C(C(=O)N2CCc3ncc(C(F)(F)F)cc3C2)C2(CCN(C3CCCCC3)CC2)OC1=O
In vitro activity (Schistosoma mansoni [1]): inactive

O=C(O)c1ccc(C(=O)Nc2sc3c(c2C(=O)NCc2ccc4c(c2)OCO4)CCCC3)cc1
In vitro activity (Schistosoma mansoni [1]): inactive

Clc1cccc(OCc2ncc3nccnc3n2)c1Cl
In vitro activity (Schistosoma mansoni [1]): Active | Ex-vivo screening (Schistosoma mansoni [2]): inactive

Cc1ccccc1-c1ccc(-c2nc(-c3ccc(CN(C)CCC(=O)O)cc3)no2)cc1C(F)(F)F
In vitro activity (Schistosoma mansoni [1]): inactive

C[C@H]1CCCCN1c1ccc(-c2nc(-c3cccc(CN(C)CC(=O)O)c3)no2)cc1C(F)(F)F
In vitro activity (Schistosoma mansoni [1]): inactive

CC1=C(C(=O)N2CCc3ncc(C(F)(F)F)cc3C2)C2(CCN(CC3CCOC3)CC2)OC1=O (stereo not drawn)
In vitro activity (Schistosoma mansoni [1]): inactive

CC1=C(C(=O)N2CCc3ccc(C(F)(F)F)cc3C2)C2(CCN(CC3CCOC3)CC2)OC1=O (stereo not drawn)
In vitro activity (Schistosoma mansoni [1]): inactive

Cc1cc2c(cc1C(=O)N=C(N)N)S(=O)(=O)C(C)(C)/C2=N\O
In vitro activity (Schistosoma mansoni [1]): inactive

COc1ccc(OC)c(-c2cn3cc(C(=O)NCCc4cc(OC)c5c(c4OC)OCO5)sc3n2)c1
In vitro activity (Schistosoma mansoni [1]): inactive

COCc1cc(-c2nc(-c3cccc(CN(C)CC(=O)O)c3)no2)ccc1-c1cccc(F)c1C
In vitro activity (Schistosoma mansoni [1]): inactive

CCOc1cc(-c2nc(-c3ccc(CN(C)CC(=O)O)c(F)c3)no2)ccc1-c1ccccc1C
In vitro activity (Schistosoma mansoni [1]): inactive

CC1=C(C(=O)N2CCc3ccc(C(F)(F)F)cc3C2)C2(CCN(C3CCOC(C)C3)CC2)OC1=O (stereo not drawn)
In vitro activity (Schistosoma mansoni [1]): inactive

Cc1cc(C2CCC2)c(S(C)(=O)=O)cc1C(=O)N=C(N)N
In vitro activity (Schistosoma mansoni [1]): inactive

CCCSc1cc(C)c(C(=O)N=C(N)N)cc1S(C)(=O)=O
In vitro activity (Schistosoma mansoni [1]): inactive

CCN(CCC(=O)O)Cc1cccc(-c2noc(-c3ccc(-c4ccccc4F)c(COC)c3)n2)c1
In vitro activity (Schistosoma mansoni [1]): inactive

COc1ccc(OCC(N)=O)cc1-c1cn2cc(C(=O)NCCc3c(OC)cccc3OC)sc2n1
In vitro activity (Schistosoma mansoni [1]): inactive

COc1ccc(C2=NN(C(=O)c3ccc(NC(=O)c4cccnc4)cc3)CCC2)cc1OC1CCCC1
In vitro activity (Schistosoma mansoni [1]): inactive

O=C(C1CCCCC1)N1CC(=O)N2CCc3ccccc3[C@H]2C1
In vitro activity (Schistosoma mansoni [1]): inactive

COCc1cc(-c2nc(-c3ccc(CNCC(=O)O)c(F)c3)no2)ccc1-c1ccccc1F
In vitro activity (Schistosoma mansoni [1]): Active | Ex-vivo screening (Schistosoma mansoni [2]): inactive

COc1ccc(OCC(=O)O)cc1-c1cn2cc(C(=O)NCCc3c(OC)cccc3OC)sc2n1
In vitro activity (Schistosoma mansoni [1]): inactive

Cc1cc(Oc2cccnc2)c([N+](=O)[O-])cc1C(=O)N=C(N)N
In vitro activity (Schistosoma mansoni [1]): inactive
